The record followed here is publication PMC7571124 (Molecules, 2020).

In data set [1] the target is T1, neuraminidase of A/PR/8/34 H1N1 (Influenza A virus, UniProt P03468).
T1 construct: Samples of cell supernatant infected with whole virus were used as source of enzymes; host or cells: MDCK cells infected with the virus; clarified culture supernatant
Put plainly: biochemical. In kind it is biochemical, Influenza A virus A/Puerto Rico/8/34 (H1N1).

In data set [2] the test system is avian influenza A A/CHK/MX/1994 H5N2 virus. As to the kind of experiment: microbe, parasite or virus in culture. Format: cell-based. Particulars: for IC50: read-out: IC50 of viral replication inhibition.
Data set [3] addresses neuraminidase of A/CHK/MX/1994 H5N2 (Influenza A virus, UniProt Q0A2F2). In kind it is biochemical, Influenza A virus A/Chicken/Mexico/31381-7/1994 (H5N2).
The nature of data set [4]: in vitro. Particulars: dog.
For data set [5], the system named is MDCK cells. Particulars: dog.

Like-named read-outs stand apart in the source and are kept apart here. Residues, ends and D or L forms follow the SMILES beside them.

The IC50 is the concentration that inhibits the measured activity by half. A word on the Ki: it is a dissociation constant, usually derived from enzyme kinetics or from competition with a known ligand. As for `CCCN(CCC)S(=O)(=O)c1ccc(C(=O)O)cc1` [ORP, 4-(dipropylsulfamoyl) benzoic acid], in data set [1], the midpoint of inhibition, the IC50, lay at 23 ± 1.2 mM; the Ki was determined as 10.5 mM; the inhibition mechanism entry was “competitive”. Moreover, the half-inhibitory concentration (IC50) in data set [2] (Influenza A virus, H5N2, MDCK, in Canis lupus familiaris) is 0.157 mM. In addition, in data set [2] (at 1 mM), the “inhibition of viral replication (lytic plaques)” value (“inhibition of viral replication” below) is on record as “only lowered the number of plaques”. Moreover, the inhibition mechanism result in data set [3] is “competitive”.
Take `CC(=O)N[C@H]1[C@H]([C@H](O)[C@H](O)CO)OC(C(=O)O)=C[C@@H]1N=C(N)N` [Zanamivir, zanamivir]: in data set [2], the lytic plaque formation entry was “not detected” and the half-inhibitory concentration (IC50) was 0.000741 mM. Also, the inhibition mechanism result in data set [3] is “competitive”.
The Km is the concentration of substrate that gives half-maximal velocity. For orientation: Vmax means the top rate of the reaction or transport when substrate is in excess. For the molecule `CC(=O)N[C@H]1[C@H]([C@H](O)[C@H](O)CO)O[C@@](Oc2ccc3c(C)cc(=O)oc3c2)(C(=O)O)C[C@@H]1O` [MUNANA, 2′-O-(4-methylumbelliferyl)-α-dN-acetylneuraminic acid], in data set [1], the Michaelis constant (Km) is 142 µM and the maximum rate (Vmax) stood at 2.77 µmol/min. In data set [3], the Michaelis constant (Km) is 106 µM and the Vmax amounted to 5.2 µmol/min.
Take `Cc1ccc(C)c(NC(=O)CC(C(=O)O)N2CCNCC2)c1` (stereo not shown) [FMOL, propanoic 3-[(2,5-dimethylphenyl)carbamoyl]-2-(piperazin-1-yl) acid]: the “inhibition of viral replication” value in data set [2] (at 100 μM) is “affected the size and number of plaques”; in data set [2] (at 1 mM) it was “affected the size and number of plaques”.
Consider “3-(propylaminosulfonyl)-4-chlorobenzoic acid [STL]”, for which the “inhibition of viral replication” value in data set [2] (at 100 μM) is on record as “losing this effect”; in data set [2] (at 1 mM), “completely inhibited”. In addition, in data set [3], the 50% inhibitory concentration (IC50) amounted to 24.8 ± 1.3 mM.
As for `CSCCC(NC(=O)C(Cc1ccccc1)NC(C)=O)C(=O)O` (stereo not drawn) [AAMOL, N-acetylphenylalanylmethionine] (Ac-Phe-Met-OH; configuration not given here), in data set [1], half-maximal inhibition (IC50) required 57 ± 1.1 mM, the affinity corresponds to a Ki of 15.3 mM and the inhibition mechanism entry was “competitive”. Besides, the “inhibition of viral replication” value in data set [2] (at 1 μM) is “no inhibition effect was observed”. The inhibition mechanism entry in data set [3] is listed as “competitive”. For the same molecule, the CC50 in data set [4] turned out to be 0.016 ± 0.0015 mM.
In data set [1], `O=C1O[C@H]([C@@H](O)CO)C(O)=C1O` [CIV, ascorbic acid] returned an IC50 of 32 ± 1.5 mM. The molecule also came in with a Ki in data set [1] of 26.4 mM. For the same molecule, the inhibition mechanism result in data set [1] and in data set [3] was “noncompetitive” each time. In data set [2] (at 1 μM), the “inhibition of viral replication” value was “no inhibition effect was observed”. Moreover, the CC50 in data set [5] turned out to be 0.00055 ± 0.0011 mM; in data set [4], 0.0003 mM.
